The text below walks through data of US9695181B2, “Hydroximic acid derivatives and medical applications therof” (Double Rider Medicine Co., LTD., priority 2013, dated 2017).

Each structure is given as a SMILES string.

As a reminder, the IC50 is the concentration needed to halve the response being measured.

What all share (assay type): biochemical
The target in test [1] is KDR (VEGFR2) protein tyrosine kinase (Homo sapiens (Human), UniProt P35968). Nature of the test: Inhibition of KDR (VEGFR2) protein tyrosine kinase substrate phosphorylation, ELISA. The settings on record: for IC50: ELISA, ATP 5 μM, * average of three experiments ± SD, ** one experiment. The protocol: Kinase reaction substrate Poly(Glu, Tyr)4:1 (SIGMA);
KDR (VEGFR2) protein tyrosine kinase, sequence (P35968 20-1356, species assumed): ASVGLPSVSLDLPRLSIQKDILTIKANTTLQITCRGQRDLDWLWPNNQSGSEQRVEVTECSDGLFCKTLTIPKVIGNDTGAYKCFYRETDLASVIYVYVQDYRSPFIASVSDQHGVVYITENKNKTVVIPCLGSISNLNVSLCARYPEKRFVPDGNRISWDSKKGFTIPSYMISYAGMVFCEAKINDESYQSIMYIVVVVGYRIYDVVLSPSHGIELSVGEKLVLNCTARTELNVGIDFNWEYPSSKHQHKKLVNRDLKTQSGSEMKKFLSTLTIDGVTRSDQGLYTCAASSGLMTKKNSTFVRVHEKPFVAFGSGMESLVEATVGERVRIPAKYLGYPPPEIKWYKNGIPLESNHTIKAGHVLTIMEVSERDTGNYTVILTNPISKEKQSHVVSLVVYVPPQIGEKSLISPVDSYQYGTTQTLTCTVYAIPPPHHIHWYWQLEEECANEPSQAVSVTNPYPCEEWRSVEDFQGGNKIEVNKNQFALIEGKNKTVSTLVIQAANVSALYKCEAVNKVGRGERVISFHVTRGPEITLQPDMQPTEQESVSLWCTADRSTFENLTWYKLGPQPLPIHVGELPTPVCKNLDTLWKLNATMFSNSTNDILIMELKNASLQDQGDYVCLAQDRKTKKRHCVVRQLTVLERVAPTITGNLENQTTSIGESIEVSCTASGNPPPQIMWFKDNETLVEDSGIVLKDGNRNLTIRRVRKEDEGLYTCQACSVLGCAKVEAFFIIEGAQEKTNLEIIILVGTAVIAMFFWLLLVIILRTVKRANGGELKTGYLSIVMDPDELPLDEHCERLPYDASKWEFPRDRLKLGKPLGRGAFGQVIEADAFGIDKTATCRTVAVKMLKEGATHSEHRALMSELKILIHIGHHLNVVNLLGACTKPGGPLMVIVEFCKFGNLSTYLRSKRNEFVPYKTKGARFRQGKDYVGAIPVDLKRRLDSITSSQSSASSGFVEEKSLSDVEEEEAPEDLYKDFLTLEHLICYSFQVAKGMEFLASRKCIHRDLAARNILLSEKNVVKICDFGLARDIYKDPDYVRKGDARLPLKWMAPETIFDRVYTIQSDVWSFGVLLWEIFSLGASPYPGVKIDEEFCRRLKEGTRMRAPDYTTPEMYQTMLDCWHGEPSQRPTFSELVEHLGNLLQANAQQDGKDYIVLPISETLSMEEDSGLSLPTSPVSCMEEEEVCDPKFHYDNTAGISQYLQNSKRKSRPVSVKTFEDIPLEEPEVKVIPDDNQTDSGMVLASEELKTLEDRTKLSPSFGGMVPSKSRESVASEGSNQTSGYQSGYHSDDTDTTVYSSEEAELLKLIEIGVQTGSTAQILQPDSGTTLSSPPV
(§1) (1) Kinase reaction substrate Poly(Glu,Tyr)4:1 was diluted to 20 µg/ml with potassium ion-free PBS, and enzyme labeled plate was coated by the substrate, reacted at 37° C. for 12-16 h, and then the liquid in holes was removed.
(§2) (2) Enzyme labeled plate was washed with T-PBS for 10 min three times.
(§3) (3) Enzyme labeled plate was dried at 37° C. in a dryer.
(§4) (4) The tested samples were added into holes of the coated enzyme labeled plate:
The tested samples was firstly formulated to be a 10^−2 M stock solution in DMSO, subpackaged and storaged at −20° C., and then diluted to required concentration with reaction buffer before use, added into the experiment holes to reach corresponding final concentration in a 100 μL reaction system. Meanwhile, positive control holes were created, and added with positive control compound Su11248.
(§5) (5) Adding ATP and the tested tyrosine kinase:
(§6) ATP solution (final concentration 5 μM) diluted with reaction buffer was added, and then tested tyrosine kinase diluted with reaction buffer was added. Total volume of the reaction system was 100 μL. Meanwhile, negative control holes and enzyme-free control holes were created.
(6) The reaction systems were placed in a wet box, reacted at 37° C. on a shaking table for 1 hour under a condition that light was prohibited, and after the reaction, the plate was washed with T-PBS for three times.
(7) Antibody PY99 100 μL/hole was added, reacted at 37° C. on a shaking table for 30 minutes. The plate was washed for three times with T-PBS.
(§7) (8) Horseradish peroxidase labeled Sheep anti mouse IgG 100 μL/hole was added, and reacted at 37° C. on a shaking table for 30 minutes. The plate was washed for three times with T-PBS.
(§8) (9) OPD coloring solution 100 μL/hole was added, and reacted at room temperature for 1-10 minutes under a condition that light was prohibited.
(§9) (10) 2M H2SO4 50 μL was added to terminate the reaction, and value A490 was measured by tunable wavelength type micro plate (Molecular Devices SPECTRAMAX190).
(§10) (11) The inhibition rate of the sample was obtained by the following equation:
(§11) [formula] Experimental Result
(An ELISA detects its analyte on a solid surface through an enzyme-linked reagent.)

For test [2], the target named is PDGFR-β (Platelet-Derived Growth Factor Receptor β) protein tyrosine kinase (Homo sapiens (Human), UniProt P09619). Nature of the test: Inhibition of PDGFR-β protein tyrosine kinase substrate phosphorylation, ELISA. The settings on record: for IC50: ELISA, ATP 5 μM, * average of three experiments ± SD, ** one experiment; for inhibition of the activity of PDGFR-β tyrosine kinase, conclusion in words: at the molecular level. The method, then: Embodiment 19: Inhibition of Compound IIa, IIb, IIc and IId on the Activity of Catalyzing Substrate Phosphorylation of PDGFR-β (Platelet-Derived Growth Factor Receptor β) Protein Tyrosine Kinase at the Molecular Level: Enzyme-Linked Immunosorbent Assay (ELISA)
PDGFR-β (Platelet-Derived Growth Factor Receptor β) protein tyrosine kinase, sequence (P09619 33-1106): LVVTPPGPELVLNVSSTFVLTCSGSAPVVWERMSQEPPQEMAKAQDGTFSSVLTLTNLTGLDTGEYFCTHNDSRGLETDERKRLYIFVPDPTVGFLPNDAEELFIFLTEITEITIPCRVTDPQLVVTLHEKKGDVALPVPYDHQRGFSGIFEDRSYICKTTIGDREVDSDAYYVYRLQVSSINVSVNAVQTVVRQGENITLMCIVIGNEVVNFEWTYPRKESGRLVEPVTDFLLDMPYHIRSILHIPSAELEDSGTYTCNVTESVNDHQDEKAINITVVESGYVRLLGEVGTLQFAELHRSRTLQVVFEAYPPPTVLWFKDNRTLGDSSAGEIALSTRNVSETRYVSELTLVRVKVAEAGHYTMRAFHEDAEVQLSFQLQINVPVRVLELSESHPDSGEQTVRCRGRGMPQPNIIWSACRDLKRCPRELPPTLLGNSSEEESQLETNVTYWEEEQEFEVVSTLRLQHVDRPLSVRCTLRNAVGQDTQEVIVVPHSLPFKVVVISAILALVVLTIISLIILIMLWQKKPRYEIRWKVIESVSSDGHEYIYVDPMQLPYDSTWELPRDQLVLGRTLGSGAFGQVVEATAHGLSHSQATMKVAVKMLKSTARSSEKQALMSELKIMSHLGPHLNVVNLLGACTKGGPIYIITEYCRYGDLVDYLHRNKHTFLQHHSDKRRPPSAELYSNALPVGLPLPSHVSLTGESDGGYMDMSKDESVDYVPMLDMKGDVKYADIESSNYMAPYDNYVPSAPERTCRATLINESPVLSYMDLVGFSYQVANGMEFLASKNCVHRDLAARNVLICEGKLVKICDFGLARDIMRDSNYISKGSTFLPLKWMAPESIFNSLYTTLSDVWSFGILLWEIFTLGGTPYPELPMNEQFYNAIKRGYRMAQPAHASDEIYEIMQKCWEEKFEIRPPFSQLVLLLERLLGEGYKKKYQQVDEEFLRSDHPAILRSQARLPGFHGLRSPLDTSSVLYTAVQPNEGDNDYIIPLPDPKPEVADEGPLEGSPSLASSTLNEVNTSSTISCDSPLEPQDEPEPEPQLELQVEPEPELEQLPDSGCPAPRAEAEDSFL
Tyrosine kinase PDGFR-β (MILLIPORE);
Kinase reaction substrate Poly(Glu,Tyr)4:1 (SIGMA);
as §1, §2, §3, §4
The tested samples were firstly formulated to be a 10^−2 M stock solution in DMSO, subpackaged and storaged at −20° C., and then diluted to required concentration with reaction buffer before use, added into the experiment holes to reach corresponding final concentration in a 100 μL reaction system. Meanwhile, positive control holes were created, and positive control compound Su11248 was added.
as §5, §6
(6) The reaction system were placed in a wet box, reacted at 37° C. on a shaking table for 1 hour under a condition that light was prohibited, and after the reaction, the plate was with T-PBS washed for three times.
(7) Antibody PY99 100 μL/hole was added, and reacted at 37° C. on a shaking table for 30 minutes. The plate was washed for three times with T-PBS.
as §7, §8, §9, §10, §11

In test [3] the target is Human HDAC1 (Homo sapiens (Human), UniProt Q13547). The test can be described thus: Inhibition of catalyzing activity of histone deacetylase 1 (HDAC1), fluorescence detection. The settings on record: for IC50: substrate Ac-Lys-Tyr-Lys(Ac)-AMC, * average of three experiments ± SD, ** one experiment. The method, then: Human HDAC1, obtained by utilizing baculovirus expression system;
Human HDAC1, sequence (Q13547 whole entry): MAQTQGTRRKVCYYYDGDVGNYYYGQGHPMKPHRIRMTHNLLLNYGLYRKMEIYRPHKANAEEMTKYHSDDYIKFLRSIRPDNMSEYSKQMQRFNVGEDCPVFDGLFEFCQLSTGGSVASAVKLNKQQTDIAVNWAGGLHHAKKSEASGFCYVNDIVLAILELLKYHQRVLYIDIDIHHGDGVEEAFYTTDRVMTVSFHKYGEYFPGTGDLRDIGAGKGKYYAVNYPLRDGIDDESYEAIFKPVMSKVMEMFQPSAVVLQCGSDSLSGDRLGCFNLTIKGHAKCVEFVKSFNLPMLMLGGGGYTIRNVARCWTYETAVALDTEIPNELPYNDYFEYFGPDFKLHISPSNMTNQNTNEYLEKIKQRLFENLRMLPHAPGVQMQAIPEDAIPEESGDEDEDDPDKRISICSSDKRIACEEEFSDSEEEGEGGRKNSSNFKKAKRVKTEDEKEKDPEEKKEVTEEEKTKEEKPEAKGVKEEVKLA
Substrate, Ac-Lys-Tyr-Lys (Ac)-AMC;
Enzymatic activity was tested in 96-well or 384-well flat microwell plate by fluorescence detection and taking Ac-Lys-Tyr-Lys(Ac)-AMC as substrate. The tested samples was firstly formulated to be a 10^−2 M stock solution in DMSO, subpackaged and storaged at −20° C., and then diluted to required concentration with reaction buffer before use. […] The initial reaction speed was calculated by detecting the change of fluorescence signal with time.

For the molecule `Cc1cccc(NC(=O)Nc2ccc(-c3nn(CCCN(C)CCCC(=O)NO)c4ncnc(N)c34)cc2)c1` [Compound IIc], the IC50 in test [1] amounted to 572 nM; in test [2], 146 nM; in test [3] it was 8.65 µM. The “inhibition of the activity of VEGFR2 tyrosine kinase, conclusion in words” value in test [1] (at the molecular level) was “well inhibit”. Also, in test [2], the “inhibition of the activity of PDGFR-β tyrosine kinase, conclusion in words” value is “well inhibit”. Moreover, the “inhibition of the activity of HDAC1, conclusion in words” value in test [3] (at the molecular level) was “well inhibit”.

`Cc1cccc(NC(=O)Nc2ccc(-c3nn(CCCCCCCC(=O)NO)c4ncnc(N)c34)cc2)c1` [Compound IIa]: the IC50 amounted to 3 ± 1 nM in test [1], 2.9 ± 1.5 nM in test [2] and 1.09 ± 0.21 µM in test [3].

Consider `Cc1cccc(NC(=O)Nc2ccc(-c3nn(CCCN(C)CCCC(=O)NO)c4ncnc(N)c34)cc2)c1` [Compound IId], for which the values for the IC50 in test [1], in test [2] and in test [3] were 1190 nM, 99.9 nM and 13.8 µM, respectively. In addition, in test [2], the “inhibition of the activity of PDGFR-β tyrosine kinase, conclusion in words” value is “well inhibit”.

Consider `Cc1ccc(F)c(NC(=O)Nc2ccc(-c3nn(CCCCCCCC(=O)NO)c4ncnc(N)c34)cc2)c1` [Compound IIb], for which the IC50 in test [1] worked out at 2.2 ± 0.9 nM; in test [2] it was 0.5 ± 0.1 nM; in test [3] it was 0.47 ± 0.07 µM.
